The target in assay [1] is Sodium-dependent noradrenaline transporter (Homo sapiens, UniProt P23975). In words: In Vitro Pharmacology Assay. Here is the method:
(§1) The monoamine transporters inhibitory activities of selected cycloalkylmethylamines of Formula (I) are reported herein. The compounds were evaluated using well established radioligand binding assays protocols (Galli, A. et al., J. Exp. Biol. 1995, 198, 2197-2212; Giros, B. et al., Trends Pharmcol. Sci. 1993, 14, 43-49; Gu, H. et al., J. Biol. Chem. 1994, 269(10), 7124-7130; Shearman, L. P. et al, Am. J. Physiol., 1998, 275(6 Pt 1), C1621-1629; Wolf, W. A. et al., J. Biol. Chem. 1992, 267(29), 20820-20825). The human recombinant transporter proteins dopamine (DAT), norepinephrine (NET) and serotonin (SERT) were selected for the in vitro assays. The radioligand binding assays were carried out at 11 different test concentrations 0.1 nM to 1 μM.

Assay [2] deals with Sodium-dependent serotonin transporter (Homo sapiens, UniProt P31645). In words: In Vitro Pharmacology Assay. The procedure:
as §1

One compound from BindingDB's records for patent US10035761 (Revivia Pharmaceuticals, Inc., 2018) can be followed below.

Sequence of Sodium-dependent noradrenaline transporter (P23975 whole entry): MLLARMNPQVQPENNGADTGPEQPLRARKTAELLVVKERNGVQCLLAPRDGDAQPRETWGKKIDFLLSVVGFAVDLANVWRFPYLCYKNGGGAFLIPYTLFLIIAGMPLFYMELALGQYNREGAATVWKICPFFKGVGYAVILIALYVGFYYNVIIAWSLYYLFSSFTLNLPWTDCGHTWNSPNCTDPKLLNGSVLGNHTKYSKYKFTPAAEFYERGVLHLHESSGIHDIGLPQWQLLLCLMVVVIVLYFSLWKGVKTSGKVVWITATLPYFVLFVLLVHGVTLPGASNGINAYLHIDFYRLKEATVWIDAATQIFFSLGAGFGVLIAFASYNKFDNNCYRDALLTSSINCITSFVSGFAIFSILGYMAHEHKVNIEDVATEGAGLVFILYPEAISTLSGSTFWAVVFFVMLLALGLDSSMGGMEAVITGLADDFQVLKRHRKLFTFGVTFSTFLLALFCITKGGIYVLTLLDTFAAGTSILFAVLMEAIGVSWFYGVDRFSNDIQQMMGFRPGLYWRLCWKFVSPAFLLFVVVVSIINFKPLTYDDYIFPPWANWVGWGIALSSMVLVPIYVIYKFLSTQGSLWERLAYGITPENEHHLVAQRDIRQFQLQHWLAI
Sequence of Sodium-dependent serotonin transporter (P31645 whole entry): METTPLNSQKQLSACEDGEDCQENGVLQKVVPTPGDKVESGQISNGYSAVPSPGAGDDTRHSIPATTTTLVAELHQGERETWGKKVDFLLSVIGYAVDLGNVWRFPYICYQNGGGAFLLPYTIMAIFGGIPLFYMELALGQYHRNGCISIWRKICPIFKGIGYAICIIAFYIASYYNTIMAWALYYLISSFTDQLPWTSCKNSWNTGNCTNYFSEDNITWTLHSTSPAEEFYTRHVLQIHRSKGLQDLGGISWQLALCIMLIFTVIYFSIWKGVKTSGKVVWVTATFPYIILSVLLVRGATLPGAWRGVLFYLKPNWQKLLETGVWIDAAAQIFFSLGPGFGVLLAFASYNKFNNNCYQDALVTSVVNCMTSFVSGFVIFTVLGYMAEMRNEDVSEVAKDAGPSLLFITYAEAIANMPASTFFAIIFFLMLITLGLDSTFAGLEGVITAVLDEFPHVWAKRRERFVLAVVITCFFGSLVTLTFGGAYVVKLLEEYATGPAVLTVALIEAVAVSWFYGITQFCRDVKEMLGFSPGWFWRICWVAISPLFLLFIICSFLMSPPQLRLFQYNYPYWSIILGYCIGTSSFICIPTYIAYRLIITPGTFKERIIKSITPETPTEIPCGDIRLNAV

Turning to `CCSCCNC(CC(C)C)C1(c2ccc(Cl)c(Cl)c2)CCC1` (configuration not stated) [US10035761, Compound 13f], the Ki in assay [1] amounted to 119 nM; in assay [2], 224 nM.

The Ki is a dissociation constant, usually derived from enzyme kinetics or from competition with a known ligand. Low readings indicate a stronger hold on the target, high ones a looser hold on the target.
